# Experiments:
# [1] = system: HCC1806 subcutaneous xenograft; assay: Antitumor activity against HCC1806 subcutaneous xenograft model in mice as monotherapy; assay type: in vivo; settings: 0.18 mg/kg intravenously, Q7D×2
# Description: A human breast cancer cell line HCC1806, which had been cultured in an RPMI-1640 medium containing 10% FBS, and penicillin and streptomycin, was adjusted to a concentration of 1×10^8 cells/mL with PBS to prepare a cell suspension, and the suspension was mixed with Matrigel™ (BD Bioscience, #366237) in a ratio of 1:1 to prepare a cell suspension in a concentration of 5×10^7 cell/mL. The cell suspension was inoculated in a volume of 100 μL into a subcutaneous part of a right flank of nude mice, 5 weeks of ages (CAnN.Cg-Foxnlnu/CrlCrlj, female, Charles River Laboratories Japan, Inc.).
# On the basis of the volumes of tumors obtained on the first day of administration, the mice were grouped such that averages of the tumor volumes were substantially equal among the groups. The experiment was conducted on groups each consisting of 6 mice. Test compound was dissolved in saline and intravenously administered at 0.18 mg/kg once a week for 2 weeks (Q7D×2 schedule).
# [2] = system: MES-SA/Dx5-Rx1 (human uterine sarcoma, overexpress P-gp); assay: In vitro antiproliferative activity, MES-SA/Dx5-Rx1; assay type: cell-based; settings: MES-SA/Dx5-Rx1, 72 hours
# Description: The in vitro antiproliferative assays for Compound (1) were conducted using a small panel of cancer cell lines including human squamous cell carcinoma of the esophagus (OE21, TE-8), human adenocarcinoma of the esophagus (OE33), and human uterine sarcoma (MES-SA, MES-SA-Dx5-Rx1). All cell lines were cultured in RPMI-1640 medium containing 10% FBS, and penicillin-streptomycin (culture medium), in a 5% CO2 incubator (37° C.). To each well of a 96 well plate (Becton, Dickinson and Company, 353219), 75 μL of cell suspension adjusted to a concentration of 4×10^4 cells/mL with the culture medium was added, and the cells were incubated overnight in a 5% CO2 incubator (37° C.). On the next day, 25 μL of Compound (1) in three-fold dilution series suspended in the culture medium was added to each well, and the resultant was incubated for 72 hours in a 5% CO2 incubator (37° C.). Then, cell viability was determined by CellTiter-Glo® Luminescent Cell Viability Assay (Promega) with 2013 EnVision™ Multilabel Reader (Perkin-Elmer, Wellesley, Mass.). Value of the wells containing cells without adding the test compounds was defined as 100% and the value of the wells containing no cells was defined as 0%. […] The P-gp susceptibility was calculated as the ratio of the IC50 value in MES-SA-Dx5-Rx1 cells, which overexpress P-gp, to the IC50 value in MES-SA cells.
# [3] = system: COLO-704 subcutaneous xenograft; assay: Antitumor effects in the COLO-704 xenograft model in mice as monotherapy; assay type: in vivo
# Description: A human ovarian cancer cell line COLO-704, which had been cultured in a RPMI-1640 containing 10% FBS, and penicillin-streptomycin, was adjusted to a concentration of 1×10^8 cells/mL with Hanks' Balanced Salt Solution to prepare a cell suspension. The cell suspension was inoculated in a volume of 100 μL into a subcutaneous part of a right flank of nude mice, 5 weeks of ages (CAnN.Cg-Foxn1nu/CrlCrlj, female, Charles River Laboratories Japan Inc.). Nine days after cell inoculation (Day 1), the shortest diameter and the longest diameter of a tumor in each mouse were measured by using an electronic digital caliper (Digimatic™ caliper, Mitutoyo Corporation), so as to calculate the volume of the tumor in accordance with the following calculation formulae: Tumor volume (mm^3)=Longest diameter (mm)×Shortest diameter (mm)×Shortest diameter (mm)/2 Relative tumor volume (RTV)=Tumor volume (day X)/Tumor volume (the first day) Relative body weight (RBW)=Body weight (day X)/Body weight (the first day)
# On the basis of the volumes of tumors obtained on Day 1, the mice were grouped such that averages of the tumor volumes were substantially equal among the groups. The experiment was conducted on groups each consisting of six mice. The test compound was dissolved in DMSO and a solution was stored in the freezer before use. Immediately before the administration, the stock solution was diluted with saline. The test compound in saline was intravenously once-weekly administered at 20 μg/kg, 60 μg/kg, or 180 μg/kg for 2 weeks (on Day 1 and Day 8).
# [4] = system: HEC-108 (human endometrial cancer) xenograft; assay: Antitumor effects in HEC-108 endometrial cancer xenograft model in mice as monotherapy; assay type: in vivo; settings: 180 μg/kg intravenously on Day 1 and Day 8
# Description: A human endometrial cancer cell line HEC-108, which had been cultured in an E-MEM containing 15% FBS and antibiotics were adjusted to a concentration of 7.14×10^7 cells/mL with medium to prepare a cell suspension. The cell suspension was inoculated in a volume of 150 μL into a subcutaneous part of a right flank of athymic mice (CAnN.Cg-Foxnlnu/CrlCrlj, female, 6 weeks old, Charles River Japan Inc.). Thirteen days after cell inoculation (Day 1), the length and the width of a tumor in each mouse were measured by using an electronic digital caliper (Mitutoyo Corporation), so as to calculate the volume of the tumor in accordance with the following calculation formula: Tumor volume (mm^3)=Longest diameter (mm)×Shortest diameter (mm)×Shortest diameter (mm)/2 Relative tumor volume (RTV)=Tumor volume (day X)/Tumor volume (the first day)
# On the basis of TV, the mice were randomly grouped (Day 1). Each group was consisted in six mice. Compound (1) was dissolved in DMSO and a solution was stored in the freezer before use. Compound (1) (180 μg/kg) was diluted in saline and intravenously injected on Day 1 and Day 8.
smiles,measurement,setting,value
C=C1C[C@@H]2CC[C@@]34C[C@H]5O[C@H]6[C@@H](O3)[C@H]3O[C@H](CC[C@@H]3O[C@H]6C5O4)CC(=O)O[C@@H]3[C@@H](C)[C@@H]4O[C@@H]5C[C@]6(C[C@@H]7O[C@]8(C[C@H](C)[C@@H]9O[C@H](CN)[C@H](O)C[C@@H]9O8)C[C@H](C)[C@@H]7O6)O[C@@H]5C[C@@H]4O[C@H]3C[C@H]3O[C@@H](CC[C@@H]1O2)C[C@@H](C)C3=C [Compound (1)],Tumor Regression (%),[1],90%
same,antiproliferative activity,[2],potent antiproliferative agent
same,antitumor effect,[3]; 60 μg/kg intravenously on Day 1 and Day 8,tumor growth delay
same,antitumor effect,[3]; 180 μg/kg intravenously on Day 1 and Day 8,tumor regression
same,eradication of xenograft tumors,"[3]; 180 μg/kg, on Day 22",completely eradicated the xenograft tumors in all mice
same,antitumor activity,[4],tumor growth delay
